Literature values, collected in patent US20220001014A1 (priority 2020, published 2022).
Structures can show the parent of a compound that is named as a salt.

Columns and labels:
[1] = in vivo
[2] = injection; LPS-induced acute lung injury
[3] = molecular target: ACE (Homo sapiens, UniProt P12821)
[4] = molecular target: T1, Bradykinin B2 (Homo sapiens, UniProt P30411); conditions: 18 μg/kg/h iv for 6 h; sodium-deplete normotensive and hypertensive subjects
T1 construct: host or cells: subjects in vivo (endogenous receptor)
T1 sequence (P30411 1-391): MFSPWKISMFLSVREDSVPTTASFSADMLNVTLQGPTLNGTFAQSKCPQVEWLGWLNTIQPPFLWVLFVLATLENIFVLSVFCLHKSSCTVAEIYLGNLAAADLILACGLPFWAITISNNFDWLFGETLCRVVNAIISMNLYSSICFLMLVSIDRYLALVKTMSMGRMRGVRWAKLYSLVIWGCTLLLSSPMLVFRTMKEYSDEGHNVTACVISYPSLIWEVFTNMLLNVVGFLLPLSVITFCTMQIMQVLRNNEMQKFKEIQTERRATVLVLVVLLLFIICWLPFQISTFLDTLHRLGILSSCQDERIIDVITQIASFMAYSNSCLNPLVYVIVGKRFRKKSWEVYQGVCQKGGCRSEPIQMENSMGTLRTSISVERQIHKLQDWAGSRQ

[5] = tested on: SARS-CoV; conditions: mice; dosed at concentrations similar to the clinically achievable concentration in humans; reduced from 100%
[6] = tested on: SARS-COV2; conditions: recent in vitro studies
[7] = tested on: SARS-CoV; conditions: lung epithelial cell lines
[8] = molecular target: Neprilysin (Homo sapiens, UniProt P08473)
Sequence of Neprilysin (P08473 whole entry, species assumed): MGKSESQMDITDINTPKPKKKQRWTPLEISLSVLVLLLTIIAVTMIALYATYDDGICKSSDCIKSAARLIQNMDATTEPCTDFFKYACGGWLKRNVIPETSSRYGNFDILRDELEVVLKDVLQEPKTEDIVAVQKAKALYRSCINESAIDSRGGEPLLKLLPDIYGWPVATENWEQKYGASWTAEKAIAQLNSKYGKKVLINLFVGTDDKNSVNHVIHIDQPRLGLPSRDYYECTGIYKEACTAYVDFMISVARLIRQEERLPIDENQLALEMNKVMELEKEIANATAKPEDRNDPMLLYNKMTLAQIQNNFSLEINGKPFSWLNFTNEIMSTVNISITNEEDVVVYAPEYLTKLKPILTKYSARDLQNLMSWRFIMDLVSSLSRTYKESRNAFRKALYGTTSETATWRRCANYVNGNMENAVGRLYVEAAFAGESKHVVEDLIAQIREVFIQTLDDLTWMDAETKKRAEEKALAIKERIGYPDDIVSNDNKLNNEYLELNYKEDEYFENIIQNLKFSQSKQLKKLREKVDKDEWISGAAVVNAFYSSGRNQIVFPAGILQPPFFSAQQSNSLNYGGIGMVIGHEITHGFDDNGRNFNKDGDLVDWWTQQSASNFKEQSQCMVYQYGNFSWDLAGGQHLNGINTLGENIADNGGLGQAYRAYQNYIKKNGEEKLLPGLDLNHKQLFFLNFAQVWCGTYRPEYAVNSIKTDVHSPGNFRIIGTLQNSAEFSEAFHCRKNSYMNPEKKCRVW

Sequence of ACE (P12821 30-1306, species assumed): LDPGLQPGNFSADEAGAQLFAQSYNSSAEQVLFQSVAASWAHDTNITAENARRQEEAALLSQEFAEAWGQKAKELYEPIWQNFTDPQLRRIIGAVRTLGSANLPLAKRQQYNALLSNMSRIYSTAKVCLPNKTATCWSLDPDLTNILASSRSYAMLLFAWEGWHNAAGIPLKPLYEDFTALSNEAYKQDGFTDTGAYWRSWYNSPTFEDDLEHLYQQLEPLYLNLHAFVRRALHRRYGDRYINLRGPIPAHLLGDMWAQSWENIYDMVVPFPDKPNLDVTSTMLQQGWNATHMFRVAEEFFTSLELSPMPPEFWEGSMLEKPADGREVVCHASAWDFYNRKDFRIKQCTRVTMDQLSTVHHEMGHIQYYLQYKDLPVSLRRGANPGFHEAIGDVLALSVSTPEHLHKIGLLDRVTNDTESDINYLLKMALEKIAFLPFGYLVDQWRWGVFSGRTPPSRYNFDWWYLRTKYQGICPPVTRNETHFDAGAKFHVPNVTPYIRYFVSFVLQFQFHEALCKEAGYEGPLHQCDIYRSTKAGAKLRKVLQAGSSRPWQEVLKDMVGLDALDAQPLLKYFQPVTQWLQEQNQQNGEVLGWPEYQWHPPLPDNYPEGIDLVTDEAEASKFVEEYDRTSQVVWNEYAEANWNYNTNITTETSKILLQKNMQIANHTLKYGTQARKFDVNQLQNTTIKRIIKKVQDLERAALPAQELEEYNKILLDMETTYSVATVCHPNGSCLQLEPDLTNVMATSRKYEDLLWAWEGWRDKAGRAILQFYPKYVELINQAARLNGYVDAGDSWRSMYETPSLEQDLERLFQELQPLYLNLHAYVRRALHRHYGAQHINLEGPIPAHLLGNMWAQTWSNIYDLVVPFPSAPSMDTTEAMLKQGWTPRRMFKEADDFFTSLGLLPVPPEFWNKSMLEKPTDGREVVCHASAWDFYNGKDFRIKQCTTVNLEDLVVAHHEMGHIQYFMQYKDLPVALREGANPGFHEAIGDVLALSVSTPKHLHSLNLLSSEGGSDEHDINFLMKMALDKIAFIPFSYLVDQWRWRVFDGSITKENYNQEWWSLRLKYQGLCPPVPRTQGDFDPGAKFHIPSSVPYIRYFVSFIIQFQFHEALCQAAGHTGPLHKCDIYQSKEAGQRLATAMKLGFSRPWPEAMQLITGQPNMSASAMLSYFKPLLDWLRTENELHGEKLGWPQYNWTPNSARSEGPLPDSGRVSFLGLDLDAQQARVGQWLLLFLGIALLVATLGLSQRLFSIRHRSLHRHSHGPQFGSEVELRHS

N[C@@H](CC(=O)N1CCn2c(nnc2C(F)(F)F)C1)Cc1cc(F)c(F)cc1F [sitagliptin]
joint pains [1]: can cause severe joint pains

rhACE2: rhACE2, injected in LPS-induced acute lung injury
lung injury and inflammation [2]: improved lung injury and inflammation

NCCCC[C@H](N[C@@H](CCc1ccccc1)C(=O)O)C(=O)N1CCC[C@H]1C(=O)O [Lisinopril]
ACE inhibition [3]: 83%

Cn1c(=O)cc(N2CCC[C@@H](N)C2)n(Cc2ccccc2C#N)c1=O [alogliptin]
joint pains [1]: can cause severe joint pains

CC#CCn1c(N2CCC[C@@H](N)C2)nc2c1c(=O)n(Cc1nc(C)c3ccccc3n1)c(=O)n2C [linagliptin]
joint pains [1]: can cause severe joint pains

NC(N)=NCCC[C@@H](N)C(=O)N[C@@H](CCCN=C(N)N)C(=O)N1CCC[C@H]1C(=O)N1C[C@H](O)C[C@H]1C(=O)NCC(=O)N[C@@H](Cc1cccs1)C(=O)N[C@@H](CO)C(=O)N1Cc2ccccc2C[C@@H]1C(=O)N1[C@H](C(=O)N[C@@H](CCCN=C(N)N)C(=O)O)C[C@@H]2CCCC[C@@H]21 [Icatibant]
attenuation of hypotensive effects of acute or chronic valsartan [4]: did not attenuate

CN(C)C(=O)COC(=O)Cc1ccc(OC(=O)c2ccc(NC(=N)N)cc2)cc1 [camostat mesylate, Camostat mesylate]
mortality following SARS-CoV infection [5]: 30-35% | inhibition of SARS-COV2 viral entry [6]: did not fully inhibit | entry of viruses into host cells [7]: left some residual entry of viruses

O=C(N[C@H]1CCS[C@H]2CCC[C@@H](C(=O)O)N2C1=O)[C@@H](S)Cc1ccccc1 [Omapatrilat]
ACE inhibition [3]: > 90% | Neprilysin inhibition [8]: 53%

CC(=O)SC[C@@H](Cc1ccccc1)C(=O)NCC(=O)OCc1ccccc1 [Ecadotril]
ACE inhibition [3]: 23% | Neprilysin inhibition [8]: 99%
